Legend:
FANCA = test: RT-PCR of FANCA and DI-containing transcripts; type: cell-based; settings: 72 h
MAT2A protein expression = test: Immunoblot of MAT2A protein expression; type: cell-based; settings: 96 h, HCT116 MTAP−/− and WT cells
EDNRA = EDNRA (Homo sapiens, UniProt P25101); test: Mini-profiling panel, GPCR; type: cell-based; settings: GPCR Targets
[1] = tested on: SAM levels in HCT116 MTAP−/− xenograft tumors and mice plasma; test: In vivo SAM measurement in tumors and plasma; settings: 2 or 4 h post the final dose, low group, 16 days
Protocol: The concentration of SAM in plasma and tissue samples was determined using a UPLC–MS/MS method. For plasma samples, an aliquot of 20 µL plasma sample was added with 400 µL extraction buffer (1 M acetic acid in MeOH), then vortexed and centrifuged at 16,000 g for 5 min. The supernatant was treated as the homogenized tissue sample, and the sample dilution factor was 21. For tumor samples, the tumor tissues were homogenized with 9 volumes (v/w) of extraction buffer, then vortexed and centrifuged at 16,000 g for 5 min. The supernatant was treated as the homogenized tissue sample. An aliquot of 30 µL tissue sample was added with 600 µL extraction buffer, then vortexed and centrifuged at 16,000 g for 5 min. The total sample dilution factor is 210. An aliquot of 60 µL diluted samples, standards, or QCs was added with 400 µL extraction buffer with IS (SAM‐d 3, 50 ng/mL in extraction buffer). The mixture was vortexed at 250 g for 10 min and centrifuged at 16,000 g for 5 min. An aliquot of 4 µL supernatant was injected for UPLC–MS/MS analysis. The standard calibration curve was in a 1.0–300 ng/mL concentration range. UPLC–MS/MS method for SAM detection was performed as mentioned before.

MAOA = MAOA (Homo sapiens, UniProt P21397); test: Mini-profiling panel, non-kinase enzyme; type: biochemical; settings: Non-Kinase Enzymes; read-out: MAOA Inhibitor IC50
ADRB1 = ADRB1 (Homo sapiens, UniProt P08588); test: Mini-profiling panel, GPCR; type: cell-based; settings: GPCR Targets
SERT = SERT (Homo sapiens, UniProt P31645); test: Mini-profiling panel, transporter; type: cell-based
Protocol: (§1) Further insight into selectivity was evaluated in a functional panel of 47 representative targets closely related to human life activities, including G protein‐coupled receptors, transporters, ion channels, kinases, nuclear hormone receptor targets, and nonkinase enzymes (Table S3).

DAT = DAT (Homo sapiens, UniProt Q01959); test: Mini-profiling panel, transporter; type: cell-based
Protocol: as §1

SDMA = test: Immunoblot of SDMA (PRMT5-dependent mark); type: cell-based; settings: 96 h, HCT116 MTAP−/− cells

EDNRA, sequence (P25101 21-427, species assumed): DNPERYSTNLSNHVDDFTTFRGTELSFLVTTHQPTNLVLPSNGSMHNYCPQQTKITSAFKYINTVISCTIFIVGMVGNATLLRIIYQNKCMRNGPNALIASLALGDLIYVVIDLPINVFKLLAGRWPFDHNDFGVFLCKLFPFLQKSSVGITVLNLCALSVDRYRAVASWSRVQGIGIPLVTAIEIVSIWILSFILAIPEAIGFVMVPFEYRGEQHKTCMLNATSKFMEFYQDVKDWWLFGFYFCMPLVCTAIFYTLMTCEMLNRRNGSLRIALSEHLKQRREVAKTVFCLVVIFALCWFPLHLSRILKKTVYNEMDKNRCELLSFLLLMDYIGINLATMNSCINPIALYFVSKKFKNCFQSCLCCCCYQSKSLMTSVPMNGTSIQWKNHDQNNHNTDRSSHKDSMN
ADRB1, sequence (P08588 whole entry, species assumed): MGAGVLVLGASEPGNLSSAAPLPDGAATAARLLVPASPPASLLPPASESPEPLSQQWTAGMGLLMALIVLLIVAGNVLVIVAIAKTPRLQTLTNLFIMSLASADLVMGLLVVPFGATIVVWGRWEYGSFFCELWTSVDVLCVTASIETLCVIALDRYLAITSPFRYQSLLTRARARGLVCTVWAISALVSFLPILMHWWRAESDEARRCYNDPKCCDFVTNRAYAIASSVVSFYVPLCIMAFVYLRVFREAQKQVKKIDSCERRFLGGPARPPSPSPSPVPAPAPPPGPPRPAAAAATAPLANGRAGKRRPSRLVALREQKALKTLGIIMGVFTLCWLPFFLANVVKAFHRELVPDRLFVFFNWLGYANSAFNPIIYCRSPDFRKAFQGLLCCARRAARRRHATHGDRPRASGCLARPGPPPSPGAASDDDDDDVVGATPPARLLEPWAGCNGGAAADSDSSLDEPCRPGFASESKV
DAT, sequence (Q01959 whole entry, species assumed): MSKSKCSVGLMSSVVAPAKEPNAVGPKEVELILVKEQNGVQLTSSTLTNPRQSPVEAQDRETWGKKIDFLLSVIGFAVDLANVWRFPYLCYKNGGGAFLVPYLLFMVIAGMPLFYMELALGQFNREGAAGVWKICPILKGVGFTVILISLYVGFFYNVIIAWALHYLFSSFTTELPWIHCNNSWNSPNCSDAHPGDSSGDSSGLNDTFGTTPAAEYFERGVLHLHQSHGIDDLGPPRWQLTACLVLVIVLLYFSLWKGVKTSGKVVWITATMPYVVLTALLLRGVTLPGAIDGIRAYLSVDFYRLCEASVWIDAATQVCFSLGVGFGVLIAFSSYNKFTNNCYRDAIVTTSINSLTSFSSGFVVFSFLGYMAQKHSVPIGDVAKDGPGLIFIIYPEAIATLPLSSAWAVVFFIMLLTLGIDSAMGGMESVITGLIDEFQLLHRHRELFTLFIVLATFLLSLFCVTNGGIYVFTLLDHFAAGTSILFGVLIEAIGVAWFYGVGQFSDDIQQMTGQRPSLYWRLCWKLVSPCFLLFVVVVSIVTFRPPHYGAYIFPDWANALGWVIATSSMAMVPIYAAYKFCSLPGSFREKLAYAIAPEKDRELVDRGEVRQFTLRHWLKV
MAOA, sequence (P21397 whole entry, species assumed): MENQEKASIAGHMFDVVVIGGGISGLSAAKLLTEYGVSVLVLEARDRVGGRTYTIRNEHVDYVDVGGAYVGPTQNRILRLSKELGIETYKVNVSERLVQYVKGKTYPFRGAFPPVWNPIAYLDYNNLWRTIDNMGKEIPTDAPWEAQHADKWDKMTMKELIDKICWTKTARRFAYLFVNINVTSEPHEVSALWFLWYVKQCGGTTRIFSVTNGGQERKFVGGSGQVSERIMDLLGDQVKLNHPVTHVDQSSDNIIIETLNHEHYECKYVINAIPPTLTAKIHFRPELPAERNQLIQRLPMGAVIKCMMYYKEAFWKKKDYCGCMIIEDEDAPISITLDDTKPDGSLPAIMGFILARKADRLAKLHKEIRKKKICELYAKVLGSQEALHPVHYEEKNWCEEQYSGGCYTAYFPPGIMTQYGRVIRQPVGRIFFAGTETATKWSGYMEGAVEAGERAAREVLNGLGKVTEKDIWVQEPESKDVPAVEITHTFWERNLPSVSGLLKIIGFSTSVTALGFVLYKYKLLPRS
SERT, sequence (P31645 whole entry, species assumed): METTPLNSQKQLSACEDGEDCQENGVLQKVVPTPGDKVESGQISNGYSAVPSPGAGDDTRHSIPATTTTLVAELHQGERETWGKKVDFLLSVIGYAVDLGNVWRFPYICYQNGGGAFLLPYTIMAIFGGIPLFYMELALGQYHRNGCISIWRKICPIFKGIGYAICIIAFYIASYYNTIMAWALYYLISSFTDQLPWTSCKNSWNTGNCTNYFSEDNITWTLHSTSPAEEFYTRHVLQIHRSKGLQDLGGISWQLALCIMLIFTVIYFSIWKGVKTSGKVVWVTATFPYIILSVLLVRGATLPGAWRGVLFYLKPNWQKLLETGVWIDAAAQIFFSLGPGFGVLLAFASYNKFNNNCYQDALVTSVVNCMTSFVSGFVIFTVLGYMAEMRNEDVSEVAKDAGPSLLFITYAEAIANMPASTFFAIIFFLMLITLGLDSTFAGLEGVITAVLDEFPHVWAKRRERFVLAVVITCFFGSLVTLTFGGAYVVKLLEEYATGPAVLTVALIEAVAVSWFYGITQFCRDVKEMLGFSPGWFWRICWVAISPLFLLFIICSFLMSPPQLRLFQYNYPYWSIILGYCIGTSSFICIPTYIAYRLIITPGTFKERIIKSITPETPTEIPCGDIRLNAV

Cn1cnc2c(=O)n(-c3cccnc3C3CC3)c3cc(Cl)ccc3c21 [SCR‐7952, 7‐chloro‐5‐(2‐cyclopropylpyridin‐3‐yl)‐1‐methyl‐1,5‐dihydro‐4H‐imidazo[4,5‐c]quinolin‐4‐one]
expression of FANCA DI-containing transcripts (FANCA): significantly upregulated
total levels of FANCA mRNA (FANCA): reduced
expression of MAT2A protein (MAT2A protein expression): upregulated
EC50 (EDNRA; read-out: EDNRA Agonism EC50): > 10 µM
IC50 (EDNRA; read-out: EDNRA Antagonism IC50): > 10 µM
inhibition of SAM levels in tumors and plasma [1]: 53.56–68.72%
IC50 (MAOA): > 10 µM
EC50 (ADRB1; read-out: ADRB1 Agonism EC50): > 10 µM
IC50 (ADRB1; read-out: ADRB1 Antagonism IC50): > 10 µM
IC50 (SERT): > 10 µM
IC50 (DAT): > 10 µM
SDMA level (immunoblot) (SDMA): Significant dose‐dependent reduction

Reference: article PMC11413503, “SCR‐7952, a highly selective MAT2A inhibitor, demonstrates synergistic antitumor activities in combination with the S‐adenosylmethionine‐competitive or the methylthioadenosine‐cooperative protein arginine methyltransferase 5 inhibitors in methylthioadenosine phosphorylase‐deleted tumors” (MedComm, 2024)
